Test results published in publication PMC5733001, “Biochemical and Thermodynamical Characterization of Glucose Oxidase, Invertase, and Alkaline Phosphatase Secreted by Antarctic Yeasts” (Frontiers in Molecular Biosciences, 2017).
Values belong to the molecule of their own block, whether it stands above or below them.

Tests used:
[1] = system: T1, GOD (glucose oxidase) from G. gastrica; experiment: Michaelis-Menten initial rates; peroxidase / o-dianisidine assay, […] nm; assay type: biochemical, Goffeauzyma gastrica; conditions: 64 °C, 2 M CaCl2; glucose 0.006-11 mM; O2 as co-substrate
T1 construct: native extracellular enzyme purified from yeast culture supernatant (ammonium sulfate, Superdex 75); Mr 91,000 by SDS-PAGE

[2] = system: T2, ALP (alkaline phosphatase) from Dioszegia sp.; experiment: Michaelis-Menten initial rates; alkaline phosphatase assay kit, […] nm; assay type: biochemical; conditions: 47 °C, pH 9.0; pNPP 0.001-2 mM
T2 construct: native extracellular enzyme purified from yeast culture supernatant (ammonium sulfate, anion exchange); Mr 39,000 by SDS-PAGE

[3] = substrate: OC[C@H]1O[C@@](CO)(O[C@H]2O[C@H](CO)[C@@H](O)[C@H](O)[C@H]2O)[C@@H](O)[C@@H]1O; experiment: purified protein; assay type: biochemical, Hansenula anomala; conditions: 60 °C, pH 5.0, sucrose 1-100 mM

Km [1]: 1600 µM
Molecule: OC[C@H]1OC(O)[C@H](O)[C@@H](O)[C@@H]1O (stereo partly shown) [glucose]

Km [2]: 590 µM
Molecule: O=[N+]([O-])c1ccc(OP(=O)(O)O)cc1 [p-nitrophenylphosphate]

B1: Inv (invertase) from W. anomalus (Hansenula anomala) (protein)
chain: STEYLRPQIHLTPDQGWMNDPNGMFYDRKDKLWHVYFQHNPDKKSIWATPVTWGHSTSKDLLTWDYHGNALEPENDDEGIFSGSVVVDRNNTSGFFNDSTDPEQRIVAIYTNNAQLQTQEIAYSLDKGYSFIKYDQNPVINVNSSQQRDPKVLWHDESNQWIMVVAKTQEFKVQIYGSPDLKKWDLKSNFTSNGYLGFQYECPGLFKLPIENPLNDTVTSKWVLLLAINPGSPLGGSINEYFIGDFDGTTFHPDDGATRFMDIGKDFYAFQSFDNTEPEDGALGLAWASNWQYANTVPTENWRSSMSLVRNYTLKYVDVNPENYGLTLIQKPVYDTKETRLNETLKTLETINEYEVNDLKLDKSSFVATDFNTERNATGVFEFDLKFTQTDLKMGYSNMTTQFGLYIHSQTVKGSQETLQLVFDTLSTTWYIDRTTQHSFQRNSPVFTERISTYVEKIDTTDQGNVYTLYGVVDRNILELYFNDGSIAMTNTFFFREGKIPTSFEVVCDSEKSFITIDELSVRELARK
notes: native extracellular enzyme purified from yeast culture supernatant (ammonium sulfate, Superdex 200); Mr 101,000 by SDS-PAGE
Km [3]: 78600 µM
Vmax [3]: 99500 µM/min
